Laboratory results from PubChem BioAssay (NCI).
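These data come from cells grown in 96-well plates and exposed to compound for 48 hours at five concentrations. GI50 = concentration required for 50% inhibition of growth. TGI: total growth inhibition.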

How the values were obtained:
Assay in all cases: NCI-60 cell line screen, 48 h
[1] = test system: 786-0 renal
[2] = test system: A498 renal
[3] = test system: A549 NSCLC
[4] = test system: ACHN renal
[5] = test system: BT-549 breast
[6] = test system: CAKI-1 renal
[7] = test system: CCRF-CEM leukemia
[8] = test system: COLO 205 colon
[9] = test system: DU-145 prostate
[10] = test system: EKVX NSCLC
[11] = test system: HCC-2998 colon
[12] = test system: HCT-116 colon
[13] = test system: HCT-15 colon
[14] = test system: HL-60(TB) leukemia
[15] = test system: HOP-62 NSCLC
[16] = test system: HOP-92 NSCLC
[17] = test system: HS 578T breast
[18] = test system: HT29 colon
[19] = test system: IGROV1 ovarian
[20] = test system: K-562 leukemia
[21] = test system: KM12 colon
[22] = test system: LOX IMVI melanoma
[23] = test system: M14 melanoma
[24] = test system: MALME-3M melanoma
[25] = test system: MCF7 breast
[26] = test system: MDA-MB-231 breast
[27] = test system: MDA-MB-435
[28] = test system: MOLT-4 leukemia
[29] = test system: NCI-H226 lung

`C[C@@H](Oc1ccc(C(=O)NS(=O)(=O)C(C)(C)C)cc1C(F)(F)F)c1ccc(Oc2ccccc2)cn1` was tested, and the GI50 [1] was 3.01 µM, the TGI [1] was 13 µM and the GI50 [2] was 1.91 µM. It also gave a TGI [2] of 6.74 µM, a GI50 [3] of 5.31 µM and a TGI [3] of 20.5 µM. For the same compound, the GI50 [4] was 3.59 µM, the TGI [4] was 14.5 µM and the GI50 [5] was 2.06 µM. For the same compound, the TGI [5] was 5.83 µM, the GI50 [6] was 2.7 µM and the TGI [6] was 17.7 µM. The GI50 [7] was 2.52 µM, the TGI [7] was 16.4 µM and the GI50 [8] was 2.67 µM. It also gave a TGI [8] of 7.95 µM, a GI50 [9] of 3.82 µM and a TGI [9] of 14.3 µM. The GI50 [10] was 4.35 µM, the TGI [10] was 20.3 µM and the GI50 [11] was 2.76 µM. The TGI [11] was 11.3 µM, the GI50 [12] was 2.48 µM and the TGI [12] was 11.2 µM. It also gave a GI50 [13] of 2.53 µM, a TGI [13] of 10.5 µM and a GI50 [14] of 2.4 µM. The TGI [14] was 8.23 µM, the GI50 [15] was 3.61 µM and the TGI [15] was 17.7 µM. For the same compound, the GI50 [16] was 1.78 µM, the TGI [16] was 11.7 µM and the GI50 [17] was 3.27 µM. It also gave a TGI [17] of 17.9 µM, a GI50 [18] of 3.1 µM and a TGI [18] of 8.38 µM. For the same compound, the GI50 [19] was 2.64 µM, the TGI [19] was 13.7 µM and the GI50 [20] was 1.25 µM. It also gave a TGI [20] of 21 µM, a GI50 [21] of 2.28 µM and a TGI [21] of 11.4 µM. The GI50 [22] was 2.8 µM, the TGI [22] was 10.8 µM and the GI50 [23] was 1.91 µM. For the same compound, the TGI [23] was 7.57 µM, the GI50 [24] was 10.8 µM and the TGI [24] was 26.7 µM. It also gave a GI50 [25] of 2.65 µM, a TGI [25] of 13.6 µM and a GI50 [26] of 3.6 µM. For the same compound, the TGI [26] was 15.5 µM, the GI50 [27] was 0.585 µM and the TGI [27] was 2.09 µM. It also gave a GI50 [28] of 3.65 µM, a TGI [28] of 24.9 µM and a GI50 [29] of 2.76 µM. The TGI [29] was 8.5 µM.
